Source: US20240350467A1, “[6R]-MTHF IN B6 ENHANCED 5-FU BASED CHEMOTHERAPY OF PANCREATIC CANCER” (Isofol Medical AB, priority 2023, published 2024)
Where two headings read alike, the source gives them in different places.

Experiments:
[1] = [6R]-MTHF levels after arfolitixorin versus comparable leucovorin treatment; assay type: in vivo
Excerpt: Leucovorin and l-leucovorin, both currently approved for treatment of gastrointestinal and other cancers, need to be metabolically activated to [6R]-MTHF to potentiate the effect of 5-FU. This dependency on cellular activation provides a hurdle for reaching sufficient levels of the active [6R]-MTHF. […] Secondly, the enzymatic activation is genetically regulated^16,18, and is therefore associated with variability between individuals and conditions. Arfolitoxirin is believed to be efficacious in a larger proportion of patients with less inter- and intra-individual variability. These differences may potentially turn out to be of significant importance for increased clinical efficacy in 5-FU based cancer treatment.

[2] = Stability of [6R]-5,10-MTHF forms; assay type: physicochemical
Excerpt: Arfolitixorin (former Modufolin®) is a folate-based biomodulator developed by applicant to improve the outcome of a range of antimetabolite treatments used within oncology. One of the therapeutic areas of specific interest included in the development program of arfolitixorin is as biomodulator of 5-fluorouracil (5-FU) activity in standard treatment regime for advanced, metastatic CRC, such as Stage IV. A stable lyophilizate formulation of the naturally occurring diastereoisomeric folate [6R]-5,10-MTHF has successfully been made from the drug substance arfolitixorin hemisulfate. […] As mentioned in the background section of the present application, [6R]-5,10-methylenetetrahydrofolate, abbreviated herein as [6R]-5,10-MTHF, needs to be metabolically formed when using the widely used folate-based drugs leucovorin and levoleucovorin.

[3] = system: metastatic pancreatic cancer; settings: PRODIGE 4, 342 patients enrolled; cited from earlier work
[4] = system: metastatic pancreatic cancer; settings: MPACT study; cited from earlier work
[5] = system: metastatic pancreatic cancer; settings: standard first-line treatment until 2011; cited from earlier work
[6] = in vitro; cited from earlier work
[7] = cited from earlier work
[8] = cited from earlier work; remark: listed apart in the source
[9] = in vivo; cited from earlier work

With `Nc1nc2c(c(=O)[nH]1)N1CN(c3ccc(C(=O)N[C@@H](CCC(=O)O)C(=O)O)cc3)C[C@H]1CN2` [Arfolitixorin, [6R]-5,10-methylenetetrahydrofolate] the “[6R]-MTHF levels relative to comparable treatment with leucovorin” value [1] was 3-4 times and the stability [2] was “very unstable”.
For `Nc1ccn([C@@H]2O[C@H](CO)[C@@H](O)C2(F)F)c(=O)n1` [gemcitabine], the “median overall survival (mOS)” value [3] is listed as 6.8 months, the “objective response rate (ORR)” value [3] is listed as 9.4% and the ORR [4] is listed as 7%. The mOS [4] was 6.7 months and the “median overall survival (mOS)” value [5] was “about 6 months”.
In the case of `Nc1nc(=O)c2c([nH]1)NC[C@H](CNc1ccc(C(=O)N[C@@H](CCC(=O)O)C(=O)O)cc1)N2C=O` [l-LV, [6S]-5-formyl-THF], the “conversion to methyl-tetrahydrofolate form” value [6] is listed as “rapidly converted”.
For `Cc1ncc(CO)c(CO)c1O.Cl` [Pyridoxine hydrochloride], the solubility in water [7] is given as “One gram dissolves in 5 mL of water”, the stability in air ([8]; air) is given as “stable in air” and the stability to sunlight ([8]; sunlight) is given as “slowly affected by sunlight”.
In the case of `Nc1nc2c(c(=O)[nH]1)N(C=O)[C@H](CNc1ccc(C(=O)N[C@@H](CCC(=O)O)C(=O)O)cc1)CN2` [d-LV], the “excretion by the kidneys” value [9] is listed as “slowly excreted”.
For `Nc1nc2c(c(=O)[nH]1)N1CN(c3ccc(C(=O)N[C@@H](CCC(=O)O)C(=O)O)cc3)C[C@H]1CN2.Nc1nc2c(c(=O)[nH]1)N1CN(c3ccc(C(=O)N[C@@H](CCC(=O)O)C(=O)O)cc3)C[C@H]1CN2.O=S(=O)(O)O` [arfolitixorin hemisulfate], the stability [2] was “unexpectedly stable salt”.
In the case of FOLFIRINOX, the “median overall survival (mOS)” value [3] is listed as 11.1 months and the “objective response rate (ORR)” value [3] is listed as 31.6%.
